We go through four compounds from patent US12377068B2, “In vitro and xenograft anti-tumor activity of a halogenated-xanthene against refractory pediatric solid tumors” (Provectus Pharmatech, Inc., priority 2018, dated 2025).

The subject of one series is IMR5. Put plainly: combination studies with PV-10, alamar Blue. In kind it is cell-based. Conditions: IMR5, in combination with 50 μM PV-10, 96 hours. Here is the method: (§1) Cells were cultured as described for cytotoxicity assays. A dilution series of three test drugs (doxorubicin, etoposide, vincristine) were prepared in DMEM containing either PBS (vehicle control) or PV10 (50 µM final) and added to cells in triplicate. Plates were cultured, washed and cell viability analyzed by alamar Blue®, as described for cytotoxicity assays. Combination indices (CI) for IC50 of test drug in combination with 50 µM PV-10 were calculated using CompuSyn software (ComboSyn Inc.). CI values were scored according to the following criteria CI<1 indicated synergistic activity, CI=1 indicated additive activity and CI>1 indicated […].

Another series relates to SK-N-BE(2). Briefly: combination studies with PV-10, alamar Blue. To be noted: in combination with 50 μM PV-10, 96 hours. In kind it is cell-based. How it is done:
as §1
A general note: Alamar Blue is a resazurin reagent that responds to reducing activity.

The subject of the next series is SK-N-AS. Put plainly: combination studies with PV-10, alamar Blue. The format is cell-based. Conditions: in combination with 50 μM PV-10, 96 hours. How it is done: as §1
The subject of another series is SK-N-MC. Put plainly: combination studies with PV-10, alamar Blue. In kind it is cell-based. Conditions: in combination with 50 μM PV-10, 96 hours. Here is the method: as §1
Series [1] deals with SK-N-AS, SK-N-BE (2), IMR5 and SK-N-MC cells. Briefly: combination studies with PV-10, summary over cell lines. In kind it is cell-based. To be noted: in combination, 96 hours. Here is the method: as §1
For series [2] the following is noted: rat; cited from earlier work.

The structures appear in SMILES notation.

As for `CC[C@]1(O)C[C@H]2CN(CCc3c([nH]c4ccccc34)[C@@](C(=O)OC)(c3cc4c(cc3OC)N(C=O)[C@H]3[C@@](O)(C(=O)OC)[C@H](OC(C)=O)[C@]5(CC)C=CCN6CC[C@]43[C@@H]65)C2)C1` [Vincristine, vincristine], the “combination index (CI) for IC50 of test drug” value with IMR5 was found to be 0.2; in the series on SK-N-BE(2), 0.1; in the series with SK-N-AS, 0.35; in the series on SK-N-MC it was 0.43. Moreover, the “CI values, range over the cell lines” value in series [1] is listed as 0.1-0.43.
The corresponding values for `COc1cccc2c1C(=O)c1c(O)c3c(c(O)c1C2=O)C[C@@](O)(C(=O)CO)C[C@@H]3O[C@H]1C[C@H](N)[C@H](O)[C@H](C)O1` [Doxorubicin, doxorubicin] are 0.38, 0.72, 0.77, 0.42 and 0.42-0.77.
For `O=C([O-])c1c(Cl)c(Cl)c(Cl)c(Cl)c1-c1c2cc(I)c(=O)c(I)c-2oc2c(I)c([O-])c(I)cc12.[Na+].[Na+]` [Rose Bengal, 4,5,6,7-tetrachloro-2′,4′,5′,7′-tetraiodofluorescein disodium], in series [2], the “in vivo biological lifetime” value is “a few minutes”.
Turning to `COc1cc([C@@H]2c3cc4c(cc3[C@@H](O[C@@H]3O[C@@H]5CO[C@@H](C)O[C@H]5[C@H](O)[C@H]3O)[C@H]3COC(=O)[C@H]23)OCO4)cc(OC)c1O` [Etoposide, etoposide], the “combination index (CI) for IC50 of test drug” value with IMR5 was 0.65; in the series on SK-N-BE(2), 0.66; with SK-N-AS it was 0.17; in the series with SK-N-MC it was 0.58. Besides, the “CI values, range over the cell lines” value in series [1] is given as 0.17-0.66.
